The nature of the test: Simulated digestion model, mineral bioaccessibility. As to conditions: in the presence of lutein. It counts as in vitro ADME. Here is the method: In vitro simulated gastrointestinal digestion was used for assessing mineral bioaccessibility in presence of the tested compounds.
Mineral bioaccessibility buffer (MBB) was prepared (NaCl; 6.6 mg/mL, MgSO4; 0.12 mg/mL, Glucose; 0.9 mg/mL, L-Ascorbic acid; 0.09 mg/mL, HEPES; 8.6 mg/mL at pH 6.5) with Calcium, Iron and Zinc (tricalcium phosphate; 1314.6 μg/mL, Calcium D-pantothenate; 28.5 μg/mL, Calcium Carbonate; 13.0 μg/mL, Iron Sulphate heptahydrate; 3.8 μg/mL, Iron Chloride; 12.5 μg/mL, Zinc Sulphate heptahydrate; 17.4 μg/mL, Zinc Chloride; 2.2 μg/mL) to achieve a total mineral content (Calcium; 520 μg/mL, Iron; 5.0 μg/mL, Zinc; 5.0 μg/mL), as well as soluble mineral content similar to that of infant formula. […]
The transit of CCP, Lutein, 2-PA and non-digestible Gos/Fos through the gastro-intestinal tract was mimicked using a three-phase dialysis model that was adapted from literature [Venema, 2020]. […] Calcium, Iron and Zinc in the dialysate were analyzed with ICP-OES spectrometry.
The average (n=3) total amount of Calcium, Iron and Zinc measured in the dialysate was considered bioaccessible. […]

As for `CC1=C[C@H](O)CC(C)(C)[C@H]1/C=C/C(C)=C/C=C/C(C)=C/C=C/C=C(C)/C=C/C=C(C)/C=C/C1=C(C)C[C@@H](O)CC1(C)C` [lutein], the mineral bioaccessibility entry was “significantly increased”.

The values above are taken from US20250170073A1, “SYNERGISTIC COMPOSITIONS FOR IMPROVING MINERAL BIOACCESSIBILITY” (priority 2022, published 2025).
